Test results published in patent US10610522B2, “Methods for retreating irritable bowel syndrome (IBS)” (Salix Pharmaceuticals, Inc., priority 2014, dated 2020).

System: d-IBS
Test: Study of rifaximin BID doses vs placebo in subjects with d-IBS: adequate relief of IBS symptoms and bloating
Format: in vivo, human
Method: This example relates to a study of rifaximin in subjects with d-IBS. […] There were two measures of efficacy assessed. Subjects were questioned on the relief of overall IBS symptoms and bloating. […] The analyses defined success as a “yes” response to questions regarding adequate relief.
All subpopulations in the study responded to therapy. Baseline severity was determined using 7-point Lickert scales during screening for Abdominal Pain/Discomfort and Bloating, and the number, type (normal, hard, loose) and urgency of bowel movements.
Duration of effect was assessed in a follow-up period. Subjects that responded in the 4 week treatment period were followed for an additional 3 months.
The effect of treatment on the percentage of subjects who reported adequate relief of IBS and bloating symptoms for at least two of the final three weeks during the treatment phase (Weeks 1 to 4) is shown in Tables 5-7 and FIGS. 4-6 below.
The study assessed the effect over 12 weeks of follow-up on long-term adequate relief. Subjects who had adequate relief by Week 4 and remained symptom-free at Week 5 were followed during the post-treatment phase and shown in FIGS. 1 and 2. Superiority to placebo was maintained during the 12 weeks post-treatment follow-up. Results for IBS symptoms were RFX 550 mg BID 62.3% versus placebo 49.2%, and RFX 550 mg BID 59.3% versus 50.9% for placebo for the symptom of bloating through week 16. In assessing the follow-up data, there was statistical significance (p<0.05) of bloating and IBS symptoms for RFX 550 mg BID versus placebo.
Two measures of efficacy were assessed independently. The first was the proportion of subjects who provided a ‘yes’ response to the weekly SGA question: “In the past 7 days, have you had adequate relief of your IBS symptoms? (yes/no)”. The second endpoint was the proportion of subjects who provide a ‘yes’ response to the weekly individual symptom question: “In the past 7 days, have you had adequate relief of your symptom of bloating? (yes/no)”. Durability was based on the proportion of subjects that had adequate relief over the entire treatment phase.
It is reported herein that the severity of baseline symptoms of abdominal pain and bloating influenced the response to rifaximin treatment. The co-primary endpoints in this analysis assessed weekly yes/no responses to questions regarding adequate relief of global IBS symptoms and IBS-associated bloating. Severity of baseline IBS symptoms was evaluated as a potential confounder of clinical response and was categorized as mild/moderate or severe based on a mean score of ≤4 vs. >4 (on a 7-point scale) for bloating and abdominal pain.
The Weekly yes/no responses to questions regarding adequate relief of global IBS symptoms and IBS-associated bloating were assessed. Clinical response was defined as adequate relief for 2 of the final 3 treatment weeks (wk 2, 3, or 4). Severity of baseline IBS symptoms was evaluated as a potential confounder of clinical response and was categorized as mild/moderate or severe based on a mean score of ≤4 versus >4 (on a 7-point scale (0=not bothersome; 6=very bothersome)) for bloating and abdominal pain.

## CO[C@H]1/C=C/O[C@@]2(C)Oc3c(C)c(O)c4c(O)c(c5c(nc6cc(C)ccn65)c4c3C2=O)NC(=O)/C(C)=C\C=C\[C@H](C)[C@H](O)[C@@H](C)[C@@H](O)[C@@H](C)[C@H](OC(C)=O)[C@@H]1C [Rifaximin, (2S,16Z,18E,20S,21S,22R,23R,24R,25S,26S,27S,28E)-5,6,21,23,25 Pentahydroxy-27-methoxy-2,4,11,16,20,22,24,26-octamethyl-2,7-(epoxypentadeca-(1,11,13)trienimino) benzofuro (4,5-e) pyrido(1,2-a) benzimidazole-1,15(2H)-dione,25-acetate]
Age <65
  Treatment effect, Bloating: 6.8%
  Treatment effect, IBS Sx: 6.9%
Age ≥65
  Treatment effect, Bloating: 3.2%
  Treatment effect, IBS Sx: 19.1%
Diabetes History N
  Treatment effect, Bloating: 7.4%
  Treatment effect, IBS Sx: 9.5%
Diabetes History Y
  Treatment effect, Bloating: −5.6%
  Treatment effect, IBS Sx: −12.7%
Disease Duration 10-20 y
  Treatment effect, Bloating: 11.7%
  Treatment effect, IBS Sx: 20.1%
Disease Duration >20 y
  Treatment effect, Bloating: 35.1%
  Treatment effect, IBS Sx: 46.6%
Disease Duration ≤10 y
  Treatment effect, Bloating: 2.8%
  Treatment effect, IBS Sx: 1.8%
Female, RFX 275 2w
  Adequate relief of IBS symptoms at end of treatment phase, Failure: 46 (56.8%) n (%)
  Adequate relief of IBS symptoms at end of treatment phase, Success: 35 (43.2%) n (%)
  Adequate relief of bloating at end of treatment phase, Failure: 52 (64.2%) n (%)
  Adequate relief of bloating at end of treatment phase, Success: 29 (35.8%) n (%)
Female, RFX 550 2w
  Adequate relief of IBS symptoms at end of treatment phase, Failure: 66 (48.2%) n (%)
  Adequate relief of IBS symptoms at end of treatment phase, Success: 71 (51.8%) n (%)
  Adequate relief of bloating at end of treatment phase, Failure: 74 (54.0%) n (%)
  Adequate relief of bloating at end of treatment phase, Success: 63 (46.0%) n (%)
Female, RFX 550 4w
  Adequate relief of IBS symptoms at end of treatment phase, Failure: 42 (55.3%) n (%)
  Adequate relief of IBS symptoms at end of treatment phase, Success: 34 (44.7%) n (%)
  Adequate relief of bloating at end of treatment phase, Failure: 44 (57.9%) n (%)
  Adequate relief of bloating at end of treatment phase, Success: 32 (42.1%) n (%)
Female, RFX 1100 2w
  Adequate relief of IBS symptoms at end of treatment phase, Failure: 44 (60.3%) n (%)
  Adequate relief of IBS symptoms at end of treatment phase, Success: 29 (39.7%) n (%)
  Adequate relief of bloating at end of treatment phase, Failure: 45 (61.6%) n (%)
  Adequate relief of bloating at end of treatment phase, Success: 28 (38.4%) n (%)
Gender F
  Treatment effect, Bloating: 3.9%
  Treatment effect, IBS Sx: 3.5%
Gender M
  Treatment effect, Bloating: 13.6%
  Treatment effect, IBS Sx: 21%
Male, RFX 275 2w
  Adequate relief of IBS symptoms at end of treatment phase, Failure: 9 (64.3%) n (%)
  Adequate relief of IBS symptoms at end of treatment phase, Success: 5 (35.7%) n (%)
  Adequate relief of bloating at end of treatment phase, Failure: 8 (57.1%) n (%)
  Adequate relief of bloating at end of treatment phase, Success: 6 (42.9%) n (%)
Male, RFX 550 2w
  Adequate relief of IBS symptoms at end of treatment phase, Failure: 25 (46.3%) n (%)
  Adequate relief of IBS symptoms at end of treatment phase, Success: 29 (53.7%) n (%)
  Adequate relief of bloating at end of treatment phase, Failure: 29 (53.7%) n (%)
  Adequate relief of bloating at end of treatment phase, Success: 25 (46.3%) n (%)
Male, RFX 550 4w
  Adequate relief of IBS symptoms at end of treatment phase, Failure: 15 (68.2%) n (%)
  Adequate relief of IBS symptoms at end of treatment phase, Success: 7 (31.8%) n (%)
  Adequate relief of bloating at end of treatment phase, Failure: 16 (72.7%) n (%)
  Adequate relief of bloating at end of treatment phase, Success: 6 (27.3%) n (%)
Male, RFX 1100 2w
  Adequate relief of IBS symptoms at end of treatment phase, Failure: 14 (53.8%) n (%)
  Adequate relief of IBS symptoms at end of treatment phase, Success: 12 (46.2%) n (%)
